{
  "source": "paper PMC10097024",
  "about": "“Cytotoxic and Antibacterial Prenylated Acylphloroglucinols from Hypericum olympicum L” (Plants, 2023)",
  "origin": "cited, not measured here",
  "key": {"[1]": {"system": "Sarcina lutea", "conditions": "cited from earlier work"}, "[2]": {"system": "K-562 cells", "conditions": "K-562; cited from earlier work"}, "[3]": {"system": "MDA-MB-231 cells", "conditions": "cited from earlier work"}, "[4]": {"system": "S. aureus", "conditions": "cited from earlier work"}, "[5]": {"system": "Gram-negative bacteria, such as E. coli and fungi", "conditions": "cited from earlier work"}, "[6]": {"system": "leukemia U937 cells", "conditions": "lowest IC50 value; cited from earlier work"}, "[7]": {"system": "E. faecalis", "conditions": "cited from earlier work"}, "[8]": {"system": "Corynebacterium diphtherie", "conditions": "cited from earlier work"}, "[9]": {"system": "prostate cancer cell PC-3", "conditions": "cited from earlier work"}, "[10]": {"system": "MRSA", "conditions": "MRSA; cited from earlier work"}},
  "note": "“And” between values parts separate entries of the source, which are not always exact repeats. Identical values can stand only once. Like-named read-outs stand apart in the source and are kept apart here.",
  "data": [
    {"smiles": "CC(C)=CCC[C@]1(C)[C@@H](CC=C(C)C)C[C@@]2(CC=C(C)C)C(=O)[C@]1(C(=O)C(C)C)C(=O)C(CC=C(C)C)=C2O", "note": "[hyperforin]", "values": [
      {"measurement": "MIC", "setting": "[1]", "value": "0.1 mg/L and 0.19 μM"},
      {"measurement": "IC50", "setting": "[2]", "value": 21, "unit": "µM"},
      {"measurement": "IC50", "setting": "[3]", "value": 12, "unit": "µM"},
      {"measurement": "MIC", "setting": "[4]", "value": "0.1 mg/L and 0.19 μM"},
      {"measurement": "MIC", "setting": "[4]; listed as Hyperforin", "value": 50, "unit": "mg/L"},
      {"measurement": "MIC", "setting": "[5]", "value": 400, "unit": "µg/mL"},
      {"measurement": "IC50", "setting": "[6]", "value": 1.8, "unit": "µM"},
      {"measurement": "MIC", "setting": "[7]", "value": 1, "unit": "µg/mL"},
      {"measurement": "MIC", "setting": "[8]", "value": "0.1 mg/L and 0.19 μM"},
      {"measurement": "IC50", "setting": "[9]", "value": 37, "unit": "µM"},
      {"measurement": "MIC", "setting": "[10]", "value": 1, "unit": "µg/mL"}
    ]}
  ]
}
